ChEMBL document CHEMBL1201862, “PubChem BioAssay data set” (2004)
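The compound was tested at five concentrations on cells cultured in 96-well plates, with a 48-hour exposure period. Here, GI50 denotes the concentration required for 50% inhibition of growth.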 The source made the active and inactive calls. Rule as the data show it: active = GI50 up to about 1.1 µM and inactive = higher.

Legend:
Experiment in all cases: NCI-60 cell line screen, 48 h
EKVX = system: EKVX
OVCAR-3 = system: OVCAR-3
HT-29 = system: HT-29
A498 = system: A498
SF-539 = system: SF-539
MCF7 = system: MCF7
SNB-75 = system: SNB-75
CCRF-CEM = system: CCRF-CEM
OVCAR-4 = system: OVCAR-4
HCT-116 = system: HCT-116
DLD-1 = system: DLD-1
NCI-H226 = system: NCI-H226
NCI-H522 = system: NCI-H522
SNB-19 = system: SNB-19
SW-620 = system: SW-620
RPMI-8226 = system: RPMI-8226
K562 = system: K562
UACC-257 = system: UACC-257
RXF 393 = system: RXF 393
ACHN = system: ACHN

## C[C@]12CC[C@H](O)C=C1CC[C@@H]1[C@@H]2CC[C@]2(C)C(c3ccc(=O)oc3)CC[C@]12O (stereo partly drawn)
EKVX
  GI50: 0.0311 µM (active)
OVCAR-3
  GI50: 0.0125 µM (active)
HT-29
  GI50: 0.035 µM (active)
A498
  GI50: 0.0125 µM (active)
SF-539
  GI50: 0.0125 µM (active)
MCF7
  GI50: 0.015 µM (active)
SNB-75
  GI50: 0.0156 µM (active)
CCRF-CEM
  GI50: 0.0125 µM (active)
OVCAR-4
  GI50: 0.0146 µM (active)
HCT-116
  GI50: 0.0125 µM (active)
DLD-1
  GI50: 0.0174 µM (active)
NCI-H226
  GI50: 0.0375 µM (active)
NCI-H522
  GI50: 0.0125 µM (active)
SNB-19
  GI50: 0.0327 µM (active)
SW-620
  GI50: 0.0149 µM (active)
RPMI-8226
  GI50: 0.0125 µM (active)
K562
  GI50: 0.0125 µM (active)
UACC-257
  GI50: 0.0181 µM (active)

## COC1=CC(=O)C=C(OC)C1=O [2,6-DIMETHOXYQUINONE]
EKVX
  GI50: 5.69 µM (inactive)
OVCAR-3
  GI50: 4.78 µM (inactive)
HT-29
  GI50: 27.4 µM (inactive)
A498
  GI50: 2.49 µM (inactive)
SF-539
  GI50: 16.8 µM (inactive)
RXF 393
  GI50: 7.96 µM (inactive)
MCF7
  GI50: 17.7 µM (inactive)
SNB-75
  GI50: 27.9 µM (inactive)
CCRF-CEM
  GI50: 1.38 µM (inactive)
OVCAR-4
  GI50: 7.43 µM (inactive)
HCT-116
  GI50: 6.49 µM (inactive)
DLD-1
  GI50: 8.87 µM (inactive)
NCI-H226
  GI50: 1.55 µM (inactive)
NCI-H522
  GI50: 7.05 µM (inactive)
SNB-19
  GI50: 13.6 µM (inactive)
SW-620
  GI50: 6.37 µM (inactive)
RPMI-8226
  GI50: 6 µM (inactive)
K562
  GI50: 7.1 µM (inactive)
UACC-257
  GI50: 10.2 µM (inactive)

## COc1ccc(C(=O)/C(Br)=C/C(=O)O)cc1
EKVX
  GI50: 37.8 µM (inactive)
HT-29
  GI50: 76.7 µM (inactive)
A498
  GI50: 25.1 µM (inactive)
MCF7
  GI50: 9.75 µM (inactive)
SNB-75
  GI50: 35.5 µM (inactive)
OVCAR-4
  GI50: 32.7 µM (inactive)
DLD-1
  GI50: 12.6 µM (inactive)
NCI-H226
  GI50: 27.3 µM (inactive)
NCI-H522
  GI50: 7 µM (inactive)
SNB-19
  GI50: 77.6 µM (inactive)
RPMI-8226
  GI50: 11.5 µM (inactive)
K562
  GI50: 29.5 µM (inactive)
ACHN
  GI50: 55 µM (inactive)
UACC-257
  GI50: 26.9 µM (inactive)

## CCN(CC)CCCNc1ncc(C)c2[nH]c3ccncc3c12
EKVX
  GI50: 16.1 µM (inactive)
OVCAR-3
  GI50: 12.2 µM (inactive)
HT-29
  GI50: 4.22 µM (inactive)
A498
  GI50: 17.6 µM (inactive)
SF-539
  GI50: 6.5 µM (inactive)
RXF 393
  GI50: 6.61 µM (inactive)
MCF7
  GI50: 3.31 µM (inactive)
SNB-75
  GI50: 12.4 µM (inactive)
CCRF-CEM
  GI50: 21.6 µM (inactive)
OVCAR-4
  GI50: 4.5 µM (inactive)
HCT-116
  GI50: 6.58 µM (inactive)
DLD-1
  GI50: 31 µM (inactive)
NCI-H226
  GI50: 5.69 µM (inactive)
NCI-H522
  GI50: 7.74 µM (inactive)
SNB-19
  GI50: 15.1 µM (inactive)
SW-620
  GI50: 4.71 µM (inactive)
RPMI-8226
  GI50: 50.5 µM (inactive)
K562
  GI50: 14.8 µM (inactive)
UACC-257
  GI50: 12.5 µM (inactive)

## CC1(C)N=C(N)N=C(N)N1c1ccc(OCCCOc2ccccc2)c(Cl)c1
EKVX
  GI50: 0.303 µM (active)
OVCAR-3
  GI50: 0.406 µM (active)
HT-29
  GI50: 0.0161 µM (active)
A498
  GI50: 1.4 µM (inactive)
SF-539
  GI50: 0.336 µM (active)
RXF 393
  GI50: 0.479 µM (active)
MCF7
  GI50: 0.327 µM (active)
SNB-75
  GI50: 0.948 µM (active)
CCRF-CEM
  GI50: 0.175 µM (active)
OVCAR-4
  GI50: 0.156 µM (active)
HCT-116
  GI50: 0.026 µM (active)
DLD-1
  GI50: 1.51 µM (inactive)
NCI-H226
  GI50: 0.798 µM (active)
NCI-H522
  GI50: 0.247 µM (active)
SNB-19
  GI50: 0.0379 µM (active)
SW-620
  GI50: 0.0356 µM (active)
RPMI-8226
  GI50: 0.547 µM (active)
K562
  GI50: 2.48 µM (inactive)
UACC-257
  GI50: 0.766 µM (active)

## C=C1C(=O)OC2C1CC1OC2C(C)CCC/C(C)=C\CCC1(C)O (stereo not drawn)
EKVX
  GI50: 20.4 µM (inactive)
OVCAR-3
  GI50: 9.75 µM (inactive)
HT-29
  GI50: 30.3 µM (inactive)
A498
  GI50: 19.9 µM (inactive)
SF-539
  GI50: 16.5 µM (inactive)
RXF 393
  GI50: 5.7 µM (inactive)
MCF7
  GI50: 15.3 µM (inactive)
SNB-75
  GI50: 15.3 µM (inactive)
CCRF-CEM
  GI50: 6.82 µM (inactive)
OVCAR-4
  GI50: 18.2 µM (inactive)
HCT-116
  GI50: 13.5 µM (inactive)
DLD-1
  GI50: 18.7 µM (inactive)
NCI-H226
  GI50: 18.4 µM (inactive)
NCI-H522
  GI50: 8.71 µM (inactive)
SNB-19
  GI50: 49.1 µM (inactive)
SW-620
  GI50: 10.9 µM (inactive)
RPMI-8226
  GI50: 7.6 µM (inactive)
K562
  GI50: 12.7 µM (inactive)
UACC-257
  GI50: 22.6 µM (inactive)
